The record followed here is patent publication US9714243B2, “4-pyridinonetriazine derivatives as HIV integrase inhibitors” (Merck Sharp & Dohme Corp., priority 2012, dated 2017).

This assay concerns HIV-1 (NL4-3 strain). Description: Assay for inhibition of HIV replication (ViKinG; infected MT4-GFP cells). Format: cell-based. As to the method: Assay for inhibition of HIV replication
MT4-GFP cells (250,000 cells/ml) were bulk-infected with HIV-1 (NL4-3 strain) at low multiplicity of infection (MOI) in RPMI+10% FBS for 24 hours. […] Test compounds were serial-diluted in DMSO on ECHO. The infected MT4-GFP cells were added to a 384-well poly-D-lysine coated black plate with clear bottom in which the diluted test compounds were placed. The cells were seeded at 8,000 cells per well and the final DMSO concentration was 0.4%. The infected cells (Green GFP cells) were quantified at both 24 and 48 hours post incubation using Acumen eX3. Viral reproductive ratio (R0) was determined using the number of infected cells at 48 hours divided by the number of infected cells at 24 hours. Percent viral growth inhibition was calculated by [1−(R−Rtripledrug)/(RDMSO−Rtripledrug)]*100. Compound potency IP or IC50 was determined by a 4-parameter dose response curve analysis.

Setting [1] is: MT4-GFP cells infected with HIV-1 NL4-3, 0% normal human serum (NHS), read-out: ViKinG IP (nM) with 0% NHS.
Setting [2] is: MT4-GFP cells infected with HIV-1 NL4-3, 10% normal human serum (NHS), read-out: ViKinG IP (nM) with 10% NHS.
Where [3] appears, read: Human immunodeficiency virus 1, NL43, MT4-GFP cells infected with HIV-1 NL4-3, 10% normal human serum (NHS), read-out: ViKinG IP (nM) with 10% NHS.
Where [4] appears, read: Human immunodeficiency virus 1, NL43, MT4-GFP cells infected with HIV-1 NL4-3, 100% normal human serum (NHS), read-out: ViKinG IP (nM) with 100% NHS.
Setting [5] is: MT4-GFP cells infected with HIV-1 NL4-3, 100% normal human serum (NHS), read-out: ViKinG IP (nM) with 100% NHS.
The mark [6] stands for this setting: Human immunodeficiency virus 1, NL43, MT4-GFP cells infected with HIV-1 NL4-3, 0% normal human serum (NHS), read-out: ViKinG IP (nM) with 0% NHS.

Molecules are shown by their SMILES. Where two headings read alike, the source gives them in different places.

Turning to `CN(CCNC(=O)C1CCC2(CC1)N(C)C(=O)c1c(O)c(=O)c(-c3nnc(Cc4ccc(F)cc4F)s3)cn1N2C)C(=O)OC(C)(C)C` (stereo not drawn) [Compound 140], the IC50 runs as follows: under setting [1], 61.6 nM; under setting [2], 28.2 nM. As for `CN(C)C(=O)C1(C)CCC2(CC1)N(C)C(=O)c1c(O)c(=O)c(-c3nnc(Cc4ccc(F)cc4)s3)cn1N2C` (stereo not drawn) [Compound 147], the IC50 runs as follows: under setting [3], 15.1 nM; under setting [4], 117 nM. `CN1C(=O)c2c(O)c(=O)c(-c3nnc(Cc4ccc(F)cc4F)s3)cn2N(C)C12CCC(C)(C(=O)O)CC2` (stereo not drawn) [Compound 84]: the IC50 reads like this: under setting [1], 51.5 nM; under setting [2], 209 nM. For the compound `CCN1C(=O)c2c(O)c(=O)c(-c3nnc(Cc4ccc(F)cc4F)s3)cn2N(C)C12CCC(Oc1ccccc1)CC2` (stereo not drawn) [Compound 53], the IC50 was 1030 nM under setting [4] and 15.7 nM under setting [1]. As for `CN(C)C(=O)C1CCC2(CC1)N(C)C(=O)c1c(O)c(=O)c(-c3nnc(Cc4ccc(F)cc4)s3)cn1N2C` (stereo not drawn) [Compound 145], the IC50 under setting [2] was 102 nM. As to `CN1C2CCCCN2C(=O)c2c(O)c(=O)c(-c3nnc(Cc4ccc(F)cc4F)s3)cn21` (stereo not drawn) [Compound 158], the IC50 under setting [2] was 17.7 nM and the IC50 under setting [5] came to 503 nM. In the case of `CN1C(=O)c2c(O)c(=O)c(-c3nnc(Cc4ccc(F)cc4F)s3)cn2N(C)C12CCC(C(N)=O)CC2` (stereo not drawn) [Compound 107], the IC50 by setting is: under setting [1], 4.96 nM; under setting [2], 46.4 nM.

Regarding `CN1C(=O)c2c(O)c(=O)c(-c3nnc(Cc4ccc(F)cc4F)s3)cn2N(C)C12CCC(C)(O)CC2` (stereo not drawn) [Compound 70], the IC50 by setting is: under setting [1], 9.9 nM; under setting [2], 39.1 nM. For the compound `CCN1C(=O)c2c(O)c(=O)c(-c3nnc(Cc4ccc(F)cc4F)s3)cn2N(C)C12CCC(NS(C)(=O)=O)CC2` (stereo not drawn) [Compound 24], the IC50 under setting [3] worked out at 185 nM and the IC50 under setting [4] amounted to 1040 nM. `CCN1C(=O)c2c(O)c(=O)c(-c3nnc(Cc4ccc(F)cc4F)s3)cn2N(C)C12CCC(OCCOCCOC)CC2` (stereo not drawn) [Compound 67]: the IC50 runs as follows: under setting [1], 12.5 nM; under setting [5], 160 nM. As to `CCN1C(=O)c2c(O)c(=O)c(-c3nnc(Cc4ccc(F)cc4F)s3)cn2N(C)C1C(C)(C)C` (racemic) [Compound 16], the IC50 reads like this: under setting [3], 57 nM; under setting [4], 1030 nM. As to `CCN1C(=O)c2c(O)c(=O)c(C(=O)NCc3ccc(F)cc3F)cn2CC12CC2` [Compound 179], the IC50 under setting [6] worked out at 2.86 nM and the IC50 under setting [4] came out at 1360 nM. In the case of `CCc1noc(C2CCC3(CC2)N(CC)C(=O)c2c(O)c(=O)c(-c4nnc(Cc5ccc(F)cc5F)s4)cn2N3C)n1` (stereo not drawn) [Compound 58], the IC50 is, setting by setting: under setting [1], 14.1 nM; under setting [5], 228 nM. As for `CCN1C(=O)c2c(O)c(=O)c(-c3nnc(Cc4ccc(F)cc4F)s3)cn2N(C)C12CCC(F)(F)CC2` [Compound 56], the IC50 is, setting by setting: under setting [6], 12 nM; under setting [4], 1980 nM.

For `C[C@H]1n2cc(C(=O)NCc3ccc(F)cc3F)c(=O)c(O)c2C(=O)N(C)C12CC2` [Compound 175], the IC50 is, setting by setting: under setting [6], 1.54 nM; under setting [4], 37.1 nM. For `CCc1noc(C2CCC3(CC2)N(CC)C(=O)c2c(O)c(=O)c(-c4nnc(Cc5ccc(F)cc5F)s4)cn2N3C)n1` (stereo not drawn) [Compound 57], in that order: 18.1 nM and 145 nM.

For the compound `CCN1C(=O)c2c(O)c(=O)c(-c3nnc(Cc4ccc(F)cc4F)s3)cn2N(C)C12CCC(C(F)(F)F)CC2` (stereo not drawn) [Compound 49], the IC50 by setting is: under setting [6], 19.8 nM; under setting [5], 406 nM. Regarding `COCCN1C(=O)c2c(O)c(=O)c(C(=O)NCc3ccc(F)cc3F)cn2N(C)C12CC[C@@H]1C[C@@H]12` (stereo partly drawn) [Compound 190], the IC50 runs as follows: under setting [6], 29 nM; under setting [4], 2910 nM. Regarding `CN1C(=O)c2c(O)c(=O)c(-c3nnc(Cc4ccc(F)cc4F)s3)cn2N(C)C12CCC(C(=O)NCC1CCS(=O)(=O)C1)CC2` (stereo not drawn) [Compound 137], the IC50 reads like this: under setting [3], 707 nM; under setting [1], 108 nM. As for `CN(C)CCNC(=O)C1CCC2(CC1)N(C)C(=O)c1c(O)c(=O)c(-c3nnc(Cc4ccc(F)cc4F)s3)cn1N2C` (stereo not drawn) [Compound 125], the IC50 under setting [1] amounted to 374 nM and the IC50 under setting [2] was determined as 543 nM.

Consider `CN(CCNC(=O)C1CCC2(CC1)N(C)C(=O)c1c(O)c(=O)c(-c3nnc(Cc4ccc(F)cc4F)s3)cn1N2C)C(=O)OC(C)(C)C` (stereo not drawn) [Compound 139], for which the IC50 was determined as 54.3 nM under setting [6] and 186 nM under setting [2]. As to `CCN1C(=O)c2c(O)c(=O)c(-c3nnc(Cc4ccc(F)cc4F)s3)cn2N(C)C12CCC(CO)CC2` (stereo not drawn) [Compound 55], the IC50 is, setting by setting: under setting [6], 6.46 nM; under setting [4], 279 nM.

In the case of `CCN1C(=O)c2c(O)c(=O)c(-c3nnc(Cc4ccc(F)cc4)s3)cn2N(C)C1(C)C` [Compound 5], the IC50 worked out at 31 nM under setting [3] and 936 nM under setting [4].

As to `CCN1C(=O)c2c(O)c(=O)c(-c3nnc(Cc4ccc(F)cc4)s3)cn2N(C)C12CCC(C(=O)N(C)C)CC2` (stereo not drawn) [Compound 93], under setting [2], the IC50 turned out to be 255 nM. Turning to `CN1C(=O)c2c(O)c(=O)c(-c3nnc(Cc4ccc(F)cc4F)s3)cn2N(C)C12CCC(C(=O)NCC(F)(F)F)CC2` (stereo not drawn) [Compound 111], the IC50 runs as follows: under setting [1], 26.6 nM; under setting [2], 193 nM.

In the case of `CCN1C(=O)c2c(O)c(=O)c(-c3nnc(Cc4ccc(F)cc4F)s3)cn2N(C)C12CCCc1sccc12` (racemic) [Compound 42], the IC50 under setting [6] came to 92.5 nM and the IC50 under setting [3] came out at 321 nM. Take `CN1C(=O)c2c(O)c(=O)c(-c3nnc(Cc4ccc(F)cc4F)s3)cn2N(C)C12CCC(C(=O)NCc1cnoc1)CC2` (stereo not drawn) [Compound 128]: the IC50 reads like this: under setting [1], 81.8 nM; under setting [2], 101 nM. As for `CCN1C(=O)c2c(O)c(=O)c(-c3nnc(Cc4ccc(F)cc4F)s3)cn2N(C)C1(C)C` [Compound 15], the IC50 is 3.49 nM under setting [6], 57.9 nM under setting [3] and 971 nM under setting [4].

With `COCCNC(=O)C1CCC2(CC1)N(C)C(=O)c1c(O)c(=O)c(-c3nnc(Cc4ccc(F)cc4F)s3)cn1N2C` (stereo not drawn) [Compound 122], the IC50 runs as follows: under setting [1], 5.51 nM; under setting [2], 18.4 nM.

Regarding `CN1C(=O)c2c(O)c(=O)c(-c3nnc(Cc4ccc(F)cc4F)s3)cn2N(C)C12CCC(OC(=O)C(Cl)Cl)CC2` (stereo not drawn) [Compound 68], under setting [3], the IC50 stood at 10.5 nM. Regarding `CN1n2cc(-c3nnc(Cc4ccc(F)cc4F)s3)c(=O)c(O)c2C(=O)N2CCCC21CO` (racemic) [Compound 163], the IC50 is, setting by setting: under setting [6], 8.22 nM; under setting [4], 499 nM. In the case of `CCN1C(=O)c2c(O)c(=O)c(-c3nnc(Cc4ccc(F)cc4F)s3)cn2N(C)C12CCC(OC(C)C)CC2` (stereo not drawn) [Compound 63], the IC50 was 27.6 nM under setting [1] and 391 nM under setting [5].

Consider `CCN1C(=O)c2c(O)c(=O)c(-c3nnc(Cc4ccc(F)cc4F)s3)cn2N(C)C12CCC(O)CC2` (stereo not drawn) [Compound 52], for which the IC50 is 2.33 nM under setting [1] and 130 nM under setting [5]. Take `CN1C(=O)c2c(O)c(=O)c(-c3nnc(Cc4ccc(F)cc4F)s3)cn2N(C)C12CCC(C(=O)NCc1cn(C)cn1)CC2` (stereo not drawn) [Compound 132]: the IC50 is, setting by setting: under setting [1], 109 nM; under setting [2], 173 nM. For `CN(C(=O)C1CCC2(CC1)N(C)C(=O)c1c(O)c(=O)c(-c3nnc(Cc4ccc(F)cc4F)s3)cn1N2C)C1CC1` (stereo not drawn) [Compound 110], in that order: 5.82 nM and 10.7 nM. `CN1C(=O)c2c(O)c(=O)c(-c3nnc(Cc4ccc(F)cc4F)s3)cn2N(C)C12CCC(C)(CO)CC2` (stereo not drawn) [Compound 85]: the IC50 was 12.5 nM under setting [6], 150 nM under setting [4] and 29.5 nM under setting [2]. As to `CCN1C(=O)c2c(O)c(=O)c(-c3nnc(Cc4ccc(F)cc4F)s3)cn2N(C)C12CCC(OCCOC)CC2` (stereo not drawn) [Compound 64], the IC50 is, setting by setting: under setting [6], 3.3 nM; under setting [4], 77.2 nM.

Turning to `CN(C)CCNC(=O)C1CCC2(CC1)N(C)C(=O)c1c(O)c(=O)c(-c3nnc(Cc4ccc(F)cc4F)s3)cn1N2C` (stereo not drawn) [Compound 126], the IC50 under setting [1] was 24.3 nM and the IC50 under setting [2] was 82.2 nM. In the case of `CCN1C(=O)c2c(O)c(=O)c(-c3nnc(Cc4ccc(F)cc4)s3)cn2N(C)C12CC(C(=O)OC)C2` (stereo not drawn) [Compound 224], the IC50 is, setting by setting: under setting [3], 49.3 nM; under setting [4], 361 nM. As for `COC1CCC2(CC1)Cn1cc(-c3nnc(Cc4ccc(F)cc4F)s3)c(=O)c(O)c1C(=O)N2C` (stereo not drawn) [Compound 213], the IC50 came to 5.89 nM under setting [1] and 35.8 nM under setting [5].

`COCCN1C(=O)c2c(O)c(=O)c(-c3nnc(Cc4ccc(F)cc4F)s3)cn2N(C)C12CC[C@H]1C[C@H]12` (mixture of isomers) [Compound 202]: the IC50 is, setting by setting: under setting [6], 8.36 nM; under setting [3], 1180 nM. With `CN1C(=O)c2c(O)c(=O)c(-c3nnc(Cc4ccc(F)cc4F)s3)cn2N(C)C12CCC(C(=O)NCc1cncs1)CC2` (stereo not drawn) [Compound 133], the IC50 was 190 nM under setting [1] and 548 nM under setting [2]. With `CN1C2COCCN2C(=O)c2c(O)c(=O)c(-c3nnc(Cc4ccc(F)cc4)s3)cn21` (stereo not drawn) [Compound 162], the IC50 runs as follows: under setting [2], 10.8 nM; under setting [5], 186 nM. `CN1n2cc(-c3nnc(Cc4ccc(F)cc4F)s3)c(=O)c(O)c2C(=O)NC12CC[C@@H]1C[C@@H]12` (stereo partly drawn) [Compound 196]: the IC50 under setting [6] turned out to be 1.61 nM and the IC50 under setting [4] is 307 nM.
